Test results as given in paper PMC8617681 (Pharmaceuticals, 2021).
Like-named read-outs stand apart in the source and are kept apart here.

Assay: 2 h pharmacokinetic study with or without elacridar in wild-type and Abcb1a/1b;Abcg2-/- mice
Type: in vivo
Settings: for concentration at 2 h / Cmax / Tmax / AUC(0-t): mouse, 10 mg/kg oral, 2 h; for Cmax / Tmax / AUC(0-t): male, plasma, po, 10 mg/kg; for AUC(0-t): read-out: AUC0–2h
Method: Mice were housed and handled according to institutional guidelines complying with Dutch and EU legislation. All experimental animal protocols were evaluated and approved by the institutional animal care and use committee. Wild-type, Abcb1a/1b^-/-, Abcg2^-/-, Abcb1a/1b; Abcg2^-/-, Slco1a/1b^-/- male mice, and Cyp3a^-/- and Cyp3aXAV female mice, all of a >99% FVB genetic background, were used between 9 and 16 weeks of age. […] All experimental animal protocols (WP9450, 9669, 9760), including power calculations, designed under the nationally approved DEC/CCD project AVD301002016595, were evaluated and approved by the institutional animal care and use committee of The Netherlands Cancer Institute.
Elacridar hydrochloride was dissolved in DMSO (53 mg/mL) in order to obtain 50 mg elacridar base per mL DMSO. The stock solution was further diluted with a mixture of polysorbate 20, 100% ethanol and 5% glucose water to yield a concentration of 5 mg/mL elacridar [DMSO: polysorbate 20: 100% ethanol: 5% glucose water = 10:15:15:60, (v/v/v/v)]. All dosing solutions were prepared freshly on the day of the experiment.
For the 4 h transporter experiments, tail-vein blood samples were collected at 0.125, 0.25, 0.5, 1, and 2 h time points after oral administration, respectively. For the CYP3A 8 h experiments, tail-vein blood sampling was performed at 0.25, 0.5, 1, 2, and 4 h, respectively. While for elacridar inhibition experiments, tail-vein blood samples were collected at 0.125, 0.25, 0.5, and 1 h time points after oral administration, respectively. Blood sample collection was performed using microvettes containing dipotassium EDTA. At the last time point in each experiment (2, 4 or 8 h), mice were anesthetized with 5% isoflurane and blood was collected by cardiac puncture. Blood samples were collected in Eppendorf tubes containing heparin as an anticoagulant. The mice were then sacrificed by cervical dislocation and brain, liver, kidney, lung, small intestine and testis were rapidly removed. Plasma was isolated from the blood by centrifugation at 9000× g for 6 min at 4 °C, and the plasma fraction was collected and stored at −30 °C until analysis. Organs were homogenized with 4% (w/v) bovine serum albumin and stored at −30 °C until analysis.
Pharmacokinetic parameters were calculated by noncompartmental methods using the PK solver software. The area under the plasma concentration–time curve (AUC) was calculated using the trapezoidal rule, without extrapolating to infinity. The peak plasma concentration (Cmax) and the time of maximum plasma concentration (Tmax) were estimated from the original (individual mouse) data. One-way analysis of variance (ANOVA) was used when multiple groups were compared and the Tukey post hoc correction was used to accommodate multiple testing. The two-sided unpaired Student’s t-test was used when treatments or differences between two specific groups were compared using the software GraphPad Prism 8 (GraphPad Software Inc., La Jolla, CA, USA). All the data were log-transformed before statistical tests were applied. Differences were considered statistically significant when p < 0.05. All data are presented as geometric mean ± SD.

[1] = Abcb1a/1b;Abcg2-/- (>99% FVB genetic background), male Abcb1a/1b;Abcg2-/- mice, elacridar 50 mg/kg oral 2 h prior
[2] = Abcb1a/1b;Abcg2-/- (>99% FVB genetic background), male Abcb1a/1b;Abcg2-/- mice, vehicle
[3] = wild-type (>99% FVB genetic background), male wild-type mice, elacridar 50 mg/kg oral 2 h prior
[4] = wild-type (>99% FVB genetic background), male wild-type mice, vehicle

Compound: COc1ccc(CN2C3CC2CN(c2ccc(-c4cc(OCC(C)(C)O)cn5ncc(C#N)c45)cn2)C3)cn1 [selpercatinib]
- concentration at 2 h (Abcb1a/1b;Abcg2-/- (>99% FVB genetic background), brain, male Abcb1a/1b;Abcg2-/- mice, elacridar 50 mg/kg oral 2 h prior, read-out: Cbrain): 4710 ± 484 ng/g
- concentration at 2 h (Abcb1a/1b;Abcg2-/- (>99% FVB genetic background), brain, male Abcb1a/1b;Abcg2-/- mice, vehicle, read-out: Cbrain): 4730 ± 638 ng/g
- concentration at 2 h (FVB (Abcb1a/1b;Abcg2-/-), liver, with elacridar 50 mg/kg oral, 2 h before selpercatinib, male Abcb1a/1b;Abcg2-/- mice, elacridar 50 mg/kg oral 2 h prior, read-out: CLiver): 23600 ng/g
- concentration at 2 h (FVB (Abcb1a/1b;Abcg2-/-), liver, male Abcb1a/1b;Abcg2-/- mice, vehicle, read-out: CLiver): 21400 ng/g
- concentration at 2 h (FVB (wild-type), liver, with elacridar 50 mg/kg oral, 2 h before selpercatinib, male wild-type mice, elacridar 50 mg/kg oral 2 h prior, read-out: CLiver): 20000 ng/g
- concentration at 2 h (FVB (wild-type), liver, male wild-type mice, vehicle, read-out: CLiver): 18100 ng/g
- concentration at 2 h (FVB, small intestine tissue together with contents, male Abcb1a/1b;Abcg2-/- mice, elacridar 50 mg/kg oral 2 h prior, read-out: CSI + SIC (small intestine tissue together with contents concentration)): 21200 ng/g
- concentration at 2 h (FVB, small intestine tissue together with contents, male Abcb1a/1b;Abcg2-/- mice, vehicle, read-out: CSI + SIC (small intestine tissue together with contents concentration)): 18800 ng/g
- concentration at 2 h (FVB, small intestine tissue together with contents, male wild-type mice, elacridar 50 mg/kg oral 2 h prior, read-out: CSI + SIC (small intestine tissue together with contents concentration)): 26600 ng/g
- concentration at 2 h (FVB, small intestine tissue together with contents, male wild-type mice, vehicle, read-out: CSI + SIC (small intestine tissue together with contents concentration)): 37600 ng/g
- concentration at 2 h (FVB, testis, male Abcb1a/1b;Abcg2-/- mice, elacridar 50 mg/kg oral 2 h prior, read-out: Ctestis): 9200 ± 856 ng/g
- concentration at 2 h (FVB, testis, male Abcb1a/1b;Abcg2-/- mice, vehicle, read-out: Ctestis): 7020 ± 664 ng/g
- concentration at 2 h (FVB, testis, male wild-type mice, elacridar 50 mg/kg oral 2 h prior, read-out: Ctestis): 5710 ± 1740 ng/g
- concentration at 2 h (FVB, testis, male wild-type mice, vehicle, read-out: Ctestis): 788 ± 159 ng/g
- Cmax [1]: 9620 ± 776 ng/mL
- Tmax [1]: 47.4 ± 19.8 min
- AUC(0-t) [1]: 17300 ng·h/mL
- Cmax [2]: 8860 ± 792 ng/mL
- Tmax [2]: 60 min
- AUC(0-t) [2]: 15100 ng·h/mL
- AUC(0-t) (FVB, wild-type, male wild-type mice, vehicle): 14100 ng·h/mL
- Cmax [3]: 7470 ± 1850 ng/mL
- Tmax [3]: 30 ± 16.2 min
- AUC(0-t) [3]: 12900 ng·h/mL
- Cmax [4]: 8740 ± 1560 ng/mL
- Tmax [4]: 45 ± 16.2 min
- concentration at 2 h (wild-type (>99% FVB genetic background), brain, male wild-type mice, elacridar 50 mg/kg oral 2 h prior, read-out: Cbrain): 2760 ± 851 ng/g
- concentration at 2 h (wild-type (>99% FVB genetic background), brain, male wild-type mice, vehicle, read-out: Cbrain): 210 ± 40 ng/g
- abnormal external behavior (wild-type mice, oral co-administration of elacridar): without any abnormal external behavior
